Paper PMC12966202 (Molecular Imaging and Biology, 2025)
Values joined by “and” are separate entries in the source; they are usually repeats but may differ in a detail not shown here. Equal values may be shown once.

Protocol: Subjects with localized known or suspected infection were recruited and provided informed consent according to guidelines of the University of Pennsylvania Institutional Review Board. […] The full study protocols are available at clinicaltrials.gov, NCT03424525 and were performed under the authority of the University of Pennsylvania Radioactive Drug Research Committee.
PET scans were acquired from head to mid-thigh over 15 min in 10 overlapping bed positions at 90 s per bed position with ~ 50% bed overlap. The first PET scan was started immediately following injection, followed by a second scan at 20 ± 3 min post-injection, and a third scan at 63 ± 4 min post-injection. Suspected infections outside of the dosimetry scan field of view were optionally imaged following the acquisition of the final dosimetry scan. Subjects had the option to void bladders between the second and third PET/CT scans and following the last scan, without urine collection. Images were reconstructed using a list-mode time-of-flight ordered subsets expectation maximization algorithm (TOF-OSEM). […] These images were reconstructed using TOF-OSEM, but were not included in the quantitative dosimetry results (Fig. 2).
Total activity in the brain, gallbladder, heart, intestines, kidneys, liver, lungs, pancreas, spleen, thyroids, and urinary bladder was assessed via PET with MIM v6.7 (MIM Software Inc.), using co-registered CT images to delineate regions of interest. To enable estimation of total activity in red bone marrow, tracer uptake and volume were measured based on activity concentrations in the 2nd to 4th lumbar vertebrae of each subject. Using a red marrow density of 1.03 g/mL and assuming that red marrow weight is 1.6% of total body weight, total red marrow activity was calculated for each subject. Time activity curves for organs were generated and in most cases fit to mono- or bi-exponential functions using OLINDA | EXM v1.1 software RRID:SCR_026835 [23]. For time activity curves that were poorly fit by exponential functions, a Riemann Sum was used to calculate numbers of disintegrations occurring in the organs. Dosimetry estimates were calculated using the Standard Adult Male phantom option in OLINDA.

[1] = average injected activity of 346 MBq (9.4 mCi)

COc1cc(Cc2cnc(N)nc2N)cc(OC)c1O[11CH3] [[^11C]TMP, [^11C]trimethoprim]
Effective dose (Mean ± SD, n = 4 males): 4.53E-03 mSv/MBq and 4.53E-03 ± 2.22E-04 mSv/MBq | Effective dose equivalent (Mean ± SD, n = 4 males): 6.08E-03 ± 3.49E-04 mSv/MBq | Mean absorbed dose estimate, Adrenals (Mean ± SD, n = 4 males): 3.47E-03 ± 1.13E-04 mSv/MBq | Mean absorbed dose estimate, Bone (red marrow) (Mean ± SD, n = 4 males): 3.75E-03 ± 4.17E-04 mSv/MBq | Mean absorbed dose estimate, Brain (Mean ± SD, n = 4 males): 1.37E-03 ± 3.00E-04 mSv/MBq | Mean absorbed dose estimate, Breasts (Mean ± SD, n = 4 males): 1.95E-03 ± 8.35E-05 mSv/MBq | Mean absorbed dose estimate, Heart wall (Mean ± SD, n = 4 males): 4.66E-03 ± 3.36E-04 mSv/MBq | Mean absorbed dose estimate, Kidneys (Mean ± SD, n = 4 males): 1.35E-02 mSv/MBq and 1.35E-02 ± 2.44E-03 mSv/MBq | Mean absorbed dose estimate, Liver (Mean ± SD, n = 4 males): 1.43E-02 mSv/MBq and 1.43E-02 ± 1.58E-03 mSv/MBq | Mean absorbed dose estimate, Lower large intestine wall (Mean ± SD, n = 4 males): 2.83E-03 ± 8.88E-05 mSv/MBq | Mean absorbed dose estimate, Lungs (Mean ± SD, n = 4 males): 5.62E-03 ± 1.05E-03 mSv/MBq | Mean absorbed dose estimate, Muscle (Mean ± SD, n = 4 males): 2.25E-03 ± 6.29E-05 mSv/MBq | Mean absorbed dose estimate, Osteogenic cells (Mean ± SD, n = 4 males): 3.98E-03 ± 2.42E-04 mSv/MBq | Mean absorbed dose estimate, Ovaries (Mean ± SD, n = 4 males): 3.07E-03 ± 1.25E-04 mSv/MBq | Mean absorbed dose estimate, Pancreas (Mean ± SD, n = 4 males): 5.27E-03 ± 2.20E-03 mSv/MBq | Mean absorbed dose estimate, Skin (Mean ± SD, n = 4 males): 1.73E-03 ± 6.60E-05 mSv/MBq | Mean absorbed dose estimate, Small intestine (Mean ± SD, n = 4 males): 9.29E-03 ± 2.33E-03 mSv/MBq | Mean absorbed dose estimate, Spleen (Mean ± SD, n = 4 males): 1.18E-02 mSv/MBq and 1.18E-02 ± 4.64E-03 mSv/MBq | Mean absorbed dose estimate, Stomach wall (Mean ± SD, n = 4 males): 2.83E-03 ± 6.34E-05 mSv/MBq | Mean absorbed dose estimate, Testes (Mean ± SD, n = 4 males): 2.03E-03 ± 1.05E-04 mSv/MBq | Mean absorbed dose estimate, Thymus (Mean ± SD, n = 4 males): 2.31E-03 ± 9.59E-05 mSv/MBq | Mean absorbed dose estimate, Thyroid (Mean ± SD, n = 4 males): 5.96E-03 ± 1.73E-03 mSv/MBq | Mean absorbed dose estimate, Total Body (Mean ± SD, n = 4 males): 2.84E-03 ± 6.24E-05 mSv/MBq | Mean absorbed dose estimate, Upper large intestine wall (Mean ± SD, n = 4 males): 4.86E-03 ± 7.38E-04 mSv/MBq | Mean absorbed dose estimate, Urinary bladder wall (Mean ± SD, n = 4 males): 1.10E-02 mSv/MBq and 1.10E-02 ± 5.55E-03 mSv/MBq | Mean absorbed dose estimate, Uterus (Mean ± SD, n = 4 males): 3.21E-03 ± 2.24E-04 mSv/MBq | Mean absorbed dose estimate, Gallbladder wall (Mean ± SD, one subject with cholecystectomy removed): 5.00E-03 ± 4.43E-04 mSv/MBq | background uptake in the brain (PET imaging, 4 adult males): low background uptake in the brain | estimated absorbed dose in the spleen [1]: 4.1 mSv | estimated effective dose [1]: 1.6 mSv | estimated absorbed dose in the liver (average injected activity of 346 MBq (9.4 mCi), highest uptake organ): 4.9 mSv
